Reference: publication PMC9011347, “Small-Molecule Inhibitors Targeting Lipolysis in Human Adipocytes” (Journal of the American Chemical Society, 2022)

Assays:
mouse ATGL N68K = target: T1, mouse ATGL N68K (Mus musculus, UniProt Q8BJ56, N68K); test: TAG hydrolase assay, humanized mouse ATGL variants; assay type: biochemical; conditions: variant N68K, NG-497 (10 μM) or Atglistatin (10 μM)
T1 construct: host or cells: Expi293 cells, cell lysate
Description: (§1) Figure 5 Analysis of chimeric proteins comprising human and mouse ATGL. (a) Schematic view of the minimal active domain of wild-type and chimeric ATGL variants (c1–c9). Nonidentical aa are indicated in blue and red for mouse and human ATGL, respectively. ATGL variants were expressed in Expi293 cells and TAG hydrolase activity was determined in cell lysates in the presence or absence of NG-497 (10 μM) and Atglistatin (10 μM), respectively. Inhibition of ATGL variants by respective inhibitors (tick mark) and lack of inhibition (cross) is indicated at the right edge. The expression of all ATGL variants was confirmed by Western blotting analysis (Figure S6). (b) Dose-dependent inhibition of human ATGL (aa 1–288) and c1 (human aa 1–158 and mouse aa 159–288) by NG-497. (c) Dose-dependent inhibition of mouse ATGL (aa 1–288) and c2 (mouse aa 1–158 and human aa 159–288) by Ai. IC50 values are shown in the insets. Data are presented as relative inhibition of respective DMSO controls and are indicated as mean ± SD. (d) 3D homology model of the minimal active domain of mouse ATGL (M1–L254) depicted as a cartoon. Residues 1–178 are in blue, and residues 179–254 are in gray. S47 and D166 comprising the active site are represented as green sticks. T101, C106, R109, N111, and S133 are colored in orange, A60, N68, I69, T93, C97, and T146 are colored in magenta. TEXT PRINTED IN THE PICTURE: (b) NG-497: IC50 [μM] (human): 1.3±0.1; IC50 [μM] (c1): 1.3±0.1 | (b) Ai: IC50 [μM] (human): n.det.; IC50 [μM] (c1): n.det. | (c) NG-497: IC50 [μM] (mouse): n.det.; IC50 [μM] (c2): n.det. | (c) Ai: IC50 [μM] (mouse): 2.5±0.3; IC50 [μM] (c2): 2.4±0.1 […]
The region between aa 60 and 146 of human and mouse ATGL comprises 12 nonidentical aa. We generated 3D homology models for the minimal active domain of mouse ATGL to obtain more detailed insight into the topology of the relevant region (Figure 5d). Based on this model, aa T101, C106, R109, N111, and S133 locate at peripheral (loop) regions (indicated in orange, Figure 5d). […] For all other nonidentical aa (indicated in magenta, Figure 5d), we generated variants with single aa substitutions. The humanized variants A60V, N68K, T93I, and C97F were inactivated by Ai but not NG-497 (Figure 5a).
(§2) Experimental details, materials, and methods
(§3) Expression of recombinant ATGL constructs and preparation of cell lysates. Expi293 cells were cultivated in Expi293 Expression Medium (GIBCO, Thermo Fisher Scientific, Waltham, USA) at standard conditions (37°C, 5% CO2, 95% humidified atmosphere, 125 rpm). DNA constructs containing ATGL from different species and chimeric ATGL variants in pcDNA3.1(+)myc-His C Vector were obtained from BioCat GmbH (Heidelberg, Germany). Cells were transfected with ExpiFectamine293 Transfection Kit (GIBCO) in Opti-Mem reduced serum medium (GIBCO) according to the manufacturer’s instructions. After 48 h, cells were harvested by centrifugation and washed three times with PBS. Cells were disrupted in buffer A (0.25 M sucrose, 1 mM EDTA, 1 mM dithiothreitol, 20µg/ml leupeptin, 2 µg/ml antipain, 1 µg/ml pepstatin, pH 7.0) by sonication (Virsonic 475, Virtis, Gardiner, USA). Nuclei and debris were removed by centrifugation at 1,000 g and 4°C for 10 min. Protein concentrations were determined using Bio-Rad protein assay (Bio-Rad 785, Bio-Rad Laboratories, Munich, Germany) using BSA as standard.
(§4) Expression and purification of mouse CGI-58. CGI-58 was expressed and purified as described 1. In brief, the coding sequence of mouse Cgi-58 was cloned into pHis-Sumo and co-transformed with the plasmid pTf16 expressing the chaperone Tig into E. coli BL21(DE3). Cells were cultured overnight at 37°C and 180 rpm in the presence of 40 µg/ml kanamycin and 34 µg/ml chloramphenicol. Thereafter, cells were transferred into fresh LB medium, grown until OD600 of 0.6, and expression was induced by the addition of 0.5 mM IPTG. After overnight incubation at 30°C, cells were harvested at 4,500 x g and 4°C for 20 min, […]

[1] = target: T2, c6 (aa 1–133 of human ATGL) (Homo sapiens, UniProt Q96AD5, G146T/S158T); test: TAG hydrolase assay, chimeric ATGL variants; assay type: biochemical, human and mouse; conditions: variant c6, NG-497 (10 μM) or Atglistatin (10 μM)
T2 construct: host or cells: Expi293 cells, cell lysate
T2 sequence (Q96AD5 1-288 G146T/S158T): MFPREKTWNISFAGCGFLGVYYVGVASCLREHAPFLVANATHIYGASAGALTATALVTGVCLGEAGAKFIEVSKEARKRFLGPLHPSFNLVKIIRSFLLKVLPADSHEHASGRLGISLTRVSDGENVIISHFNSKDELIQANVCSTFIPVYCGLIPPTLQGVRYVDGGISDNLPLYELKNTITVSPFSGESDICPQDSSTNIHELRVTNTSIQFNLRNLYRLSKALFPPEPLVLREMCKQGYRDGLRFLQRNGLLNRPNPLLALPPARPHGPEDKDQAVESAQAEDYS
Description: as §1
(§5) We next generated variants by further stepwise humanization of c2. Variant c3 containing aa 1–23 of human ATGL was inhibited by Ai but not NG-497 (Figure 5a). […] Finally, variants of mouse ATGL containing aa 1–146 (c7) and 60–146 (c8) of human ATGL were inhibited by NG-497 but not Ai (Figure 5a).
as §2, §3
as §4, with “min, washed in 1x PBS, and resuspended in lysis buffer (20 mM Tris/HCl pH 7.8, 300 mM NaCl, 30 mM imidazole, 0.1% IGEPAL CA-630, 3.5 mM β-mercaptoethanol, 20 µg/ml leupeptin, 2 µg/ml antipain and 1 µg/ml pepstatin). Cells were incubated with 1” for “min,”

[2] = target: T3, Variant c4 (aa 1–69 of human ATGL) (Homo sapiens, UniProt Q96AD5, F97C/G146T/H109R/I93T/N133S/S106C/S111N/S158T/S96G/V101T); test: TAG hydrolase assay, chimeric ATGL variants; assay type: biochemical, human and mouse; conditions: variant c4, NG-497 (10 μM) or Atglistatin (10 μM)
T3 construct: host or cells: Expi293 cells, cell lysate
T3 sequence (Q96AD5 1-288 I93T/S96G/F97C/V101T/S106C/H109R/S111N/N133S/G146T/S158T): as the sequence (Q96AD5 1-288 G146T/S158T) above, with I93T, S96G, F97C, V101T, S106C, H109R, S111N, N133S counted along it
Description: as §1, §5, §2, §3
as §4, with “min, washed in 1x PBS, and resuspended in lysis buffer (20 mM Tris/HCl pH 7.8, 300 mM NaCl, 30 mM imidazole, 0.1% IGEPAL CA-630, 3.5 mM β-mercaptoethanol, 20 µg/ml leupeptin, 2 µg/ml antipain and 1 µg/ml pepstatin). Cells were incubated with 1” for “min,”

[3] = target: T4, c5 (aa 1–111 of human ATGL) (Homo sapiens, UniProt Q96AD5, G146T/N133S/S158T); test: TAG hydrolase assay, chimeric ATGL variants; assay type: biochemical, human and mouse; conditions: variant c5, NG-497 (10 μM) or Atglistatin (10 μM)
T4 construct: host or cells: Expi293 cells, cell lysate
T4 sequence (Q96AD5 1-288 N133S/G146T/S158T): as the sequence (Q96AD5 1-288 G146T/S158T) above, with N133S counted along it
Description: as §1, §5, §2, §3
as §4, with “min, washed in 1x PBS, and resuspended in lysis buffer (20 mM Tris/HCl pH 7.8, 300 mM NaCl, 30 mM imidazole, 0.1% IGEPAL CA-630, 3.5 mM β-mercaptoethanol, 20 µg/ml leupeptin, 2 µg/ml antipain and 1 µg/ml pepstatin). Cells were incubated with 1” for “min,”

T1 sequence (Q8BJ56 whole entry N68K): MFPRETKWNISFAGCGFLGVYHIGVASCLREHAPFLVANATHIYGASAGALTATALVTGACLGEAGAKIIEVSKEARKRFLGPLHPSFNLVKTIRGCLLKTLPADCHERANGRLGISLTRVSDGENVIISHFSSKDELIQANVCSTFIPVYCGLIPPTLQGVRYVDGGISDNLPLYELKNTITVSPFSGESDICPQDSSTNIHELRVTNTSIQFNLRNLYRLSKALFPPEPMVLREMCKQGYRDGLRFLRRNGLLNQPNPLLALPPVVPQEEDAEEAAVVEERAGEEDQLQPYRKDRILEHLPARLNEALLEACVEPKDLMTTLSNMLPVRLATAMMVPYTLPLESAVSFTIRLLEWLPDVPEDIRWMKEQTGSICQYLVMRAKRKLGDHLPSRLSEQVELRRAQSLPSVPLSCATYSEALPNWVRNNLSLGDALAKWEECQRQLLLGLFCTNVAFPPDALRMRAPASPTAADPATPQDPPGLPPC

SMILES	inhibition of TAG hydrolase activity (mouse ATGL N68K)	inhibition of TAG hydrolase activity [1]	inhibition of TAG hydrolase activity [2]	inhibition of TAG hydrolase activity [3]
CN(C)C(=O)Nc1cccc(-c2ccc(N(C)C)cc2)c1 [Atglistatin, reference compound]	inactivated	neither inhibited	neither inhibited	neither inhibited
CCOc1ccc(-c2cc(OC)cc(C(=O)OC(C)C)n2)cc1 [NG-497]	–	neither inhibited	neither inhibited	neither inhibited
